Measurements published in US20040014740A1 (priority 2002, published 2004).

Test system: binding site of a radiolabelled ligand (assay of U.S. Patent No. 5,859,188)
Experiment: binding assay as described in U.S. Patent No. 5,859,188: percent displacement of a radiolabelled ligand
Details: for Testing Result % inhibition at indicated concentration / Testing Result % inhibition at indicated concentration, Test 1: percent displacement of radiolabelled ligand; for Testing Result % inhibition at indicated concentration, Test 2: concentration not given for Test 2
Method: Selected compounds were evaluated for their anti-parasitic activity in a binding assay as described in U.S. Patent No. 5,859,188 (Geary, et.al., 1999). Results of the evaluations are given in the following Table wherein % inhibition means percent displacement of a radiolabelled ligand as described.

CCOC(=O)c1c(NC(=O)CN2CCCCC2)sc2c1CCC2 [A, ethyl 2-{[2-(1-piperidinyl)acetyl]amino}-5,6-dihydro-4H-cyclopenta[b]thiophene-3-carboxylate]
Testing Result % inhibition at indicated concentration (3 uM): 69% at 3 uM

CCOC(=O)C1=C(NC(=O)CN2CCCCC2)SC2CCCCCC12 (stereo not shown) [C]
Testing Result % inhibition at indicated concentration, Test 1 (25 uM): 82% | Testing Result % inhibition at indicated concentration, Test 2: 53%

CCOC(=O)c1c(NC(=O)CN2CCCCC2)sc2c1CCCC2 [Compound B]
Testing Result % inhibition at indicated concentration (1 uM): 59% at 1 uM

CCOC(=O)C1=C(NC(=O)CN2CCOCC2)SC2CCCCCC12 (stereo not shown) [Compound D]
Testing Result % inhibition at indicated concentration (25 uM): 38% at 25 uM

CCOC(=O)c1cc(-c2ccsc2)sc1NC(=O)CN1CCCCC1 [aa, ethyl 5-[(piperidin-1-ylacetyl)amino]-2,3′-bithiophene-4-carboxylate]
Testing Result % inhibition at indicated concentration, Test 1 (25 uM): 46-66% | Testing Result % inhibition at indicated concentration, Test 2: 37-43%

CCOC(=O)c1c(-c2ccsc2)csc1NC(=O)CN1CCCCC1 [bb, ethyl 5-[(piperidin-1-ylacetyl)amino]-3,3′-bithiophene-4-carboxylate]
Testing Result % inhibition at indicated concentration, Test 1 (25 uM): 40-63% | Testing Result % inhibition at indicated concentration, Test 2: 18-38%

CC(C)OC(=O)c1c(NC(=O)CN2CCCCC2)sc2c1CCCC2 [cc, isopropyl 2-[(piperidin-1-ylacetyl)amino]-4,5,6,7-tetrahydro-1-benzothiophene-3-carboxylate]
Testing Result % inhibition at indicated concentration (25 uM): 34-54% at 25 uM

CC(C)OC(=O)c1c(-c2ccc(Cl)c(Cl)c2)csc1NC(=O)CN1CCCCC1 [dd, isopropyl 4-(3,4-dichlorophenyl)-2-[(piperidin-1-ylacetyl)amino]thiophene-3-carboxylate]
Testing Result % inhibition at indicated concentration (25 uM): 0-9% at 25 uM

CCOC(=O)c1c(NC(=O)CN2CCCCC2)sc2c1CCS2 [ee, ethyl 2-[(piperidin-1-ylacetyl)amino]-4,5-dihydrothieno[2,3-b]thiophene-3-carboxylate]
Testing Result % inhibition at indicated concentration (25 uM): 61-72% at 25 uM

CCOC(=O)c1c(NC(=O)CN2CCC(O)CC2)sc2c1CCCC2 [ff, ethyl 2-{[(4-hydroxypiperidin-1-yl)acetyl]amino}-4,5,6,7-tetrahydro-1-benzothiophene-3-carboxylate]
Testing Result % inhibition at indicated concentration (25 uM): 31-34% at 25 uM

CCOC(=O)c1c(NC(=O)CN2CCCC2)sc2c1CCCC2 [g, ethyl 2-[(pyrrolidin-1-ylacetyl)amino]-4,5,6,7-tetrahydro-1-benzothiophene-3-carboxylate]
Testing Result % inhibition at indicated concentration (25 uM): 68-75% at 25 uM

CCOC(=O)c1c(NC(=O)CN2CCCC(O)C2)sc2c1CCCC2 (stereo not shown) [gg, ethyl 2-{[(3-hydroxypiperidin-1-yl)acetyl]amino}-4,5,6,7-tetrahydro-1-benzothiophene-3-carboxylate]
Testing Result % inhibition at indicated concentration (25 uM): 68-73% at 25 uM

CCOC(=O)c1c(NC(=O)CN2CCCCCC2)sc2c1CCCC2 [h, ethyl 2-[(azepan-1-ylacetyl)amino]-4,5,6,7-tetrahydro-1-benzothiophene-3-carboxylate]
Testing Result % inhibition at indicated concentration (25 uM): 46% at 25 uM

CCOC(=O)c1c(NC(=O)CN2CCC2)sc2c1CCCC2 [i, ethyl 2-[(azetidin-1-ylacetyl)amino]-4,5,6,7-tetrahydro-1-benzothiophene-3-carboxylate]
Testing Result % inhibition at indicated concentration (25 uM): 28% at 25 uM

CCOC(=O)c1c(NC(=O)CN2CCCC2)sc2c1CCC2 [j, ethyl 2-[(pyrrolidin-1-ylacetyl)amino]-5,6-dihydro-4H-cyclopenta[b]thiophene-3-carboxylate]
Testing Result % inhibition at indicated concentration (25 uM): 83-88% at 25 uM

CCOC(=O)c1c(NC(=O)CN2CCCCCC2)sc2c1CCC2 [k, ethyl 2-[(azepan-1-ylacetyl)amino]-5,6-dihydro-4H-cyclopenta[b]thiophene-3-carboxylate]
Testing Result % inhibition at indicated concentration (25 uM): 77-70% at 25 uM

CCOC(=O)c1c(NC(=O)CN2CCCCC2)sc(Cl)c1-c1ccccc1 [l, ethyl 5-chloro-4-phenyl-2-[(piperidin-1-ylacetyl)amino]thiophene-3-carboxylate]
Testing Result % inhibition at indicated concentration (25 uM): 35% at 25 uM

CCOC(=O)c1c(NC(=O)CN2CCCCC2)sc2c1CCC(c1ccccc1)C2 (stereo not shown) [m, ethyl 6-phenyl-2-[(piperidin-1-ylacetyl)amino]-4,5,6,7-tetrahydro-1-benzothiophene-3-carboxylate]
Testing Result % inhibition at indicated concentration (25 uM): 36% at 25 uM

CCOC(=O)c1c(NC(=O)CN2CCCCC2)sc2c1CCC(C(C)(C)C)C2 (stereo not shown) [n, ethyl 6-tert-butyl-2-[(piperidin-1-ylacetyl)amino]-4,5,6,7-tetrahydro-1-benzothiophene-3-carboxylate]
Testing Result % inhibition at indicated concentration (25 uM): 13% at 25 uM

CCOC(=O)c1c(NC(=O)C(C)N2CCCCC2)sc2c1CCCC2 (stereo not shown) [o, ethyl 2-[(2-piperidin-1-ylpropanoyl)amino]-4,5,6,7-tetrahydro-1-benzothiophene-3-carboxylate]
Testing Result % inhibition at indicated concentration, Test 1 (25 uM): 46-73% | Testing Result % inhibition at indicated concentration, Test 2: 38-40%

CCOC(=O)c1c(NC(=O)CN2CCCCC2)sc2c1CCN(C(=O)OCC)C2 [p, diethyl 2-[(piperidin-1-ylacetyl)amino]-4,7-dihydrothieno[2,3-c]pyridine-3,6(5H)-dicarboxylate]
Testing Result % inhibition at indicated concentration, Test 1 (25 uM): 50-52% | Testing Result % inhibition at indicated concentration, Test 2: 33-49%

CCOC(=O)c1c(NC(=O)CN2CCCCC2)sc2c1CC(C)CC2 (stereo not shown) [q, ethyl 5-methyl-2-[(piperidin-1-ylacetyl)amino]-4,5,6,7-tetrahydro-1-benzothiophene-3-carboxylate]
Testing Result % inhibition at indicated concentration, Test 1 (25 uM): 65-74% | Testing Result % inhibition at indicated concentration, Test 2: 15-22%

CCOC(=O)c1c(-c2ccc(C)cn2)csc1NC(=O)CN1CCCCC1 [r, ethyl 4-(5-methylpyridin-2-yl)-2-[(piperidin-1-ylacetyl)amino]thiophene-3-carboxylate]
Testing Result % inhibition at indicated concentration, Test 1 (25 uM): 42% | Testing Result % inhibition at indicated concentration, Test 2: 26%

CCOC(=O)c1c(NC(=O)CN2CCCCC2)sc2c1CC(C)(CC)OC2 (stereo not shown) [s, ethyl 5-ethyl-5-methyl-2-[(piperidin-1-ylacetyl)amino]-4,7-dihydro-5H-thieno[2,3-c]pyran-3-carboxylate]
Testing Result % inhibition at indicated concentration, Test 1 (25 uM): 93-100% | Testing Result % inhibition at indicated concentration, Test 2: 69-79%

CCOC(=O)c1c(-c2ccco2)csc1NC(=O)CN1CCCCC1 [t, ethyl 4-(2-furyl)-2-[(piperidin-1-ylacetyl)amino]thiophene-3-carboxylate]
Testing Result % inhibition at indicated concentration, Test 1 (25 uM): 70-75% | Testing Result % inhibition at indicated concentration, Test 2: 24-40%

CCOC(=O)c1c(NC(=O)CN2CCCCC2)sc2c1CCN(Cc1ccccc1)C2 [u, ethyl 6-benzyl-2-[(piperidin-1-ylacetyl)amino]-4,5,6,7-tetrahydrothieno[2,3-c]pyridine-3-carboxylate]
Testing Result % inhibition at indicated concentration, Test 1 (25 uM): 48-51% | Testing Result % inhibition at indicated concentration, Test 2: 0-14%

CCOC(=O)c1c(-c2ccncc2)csc1NC(=O)CN1CCCCC1 [v, ethyl 2-[(piperidin-1-ylacetyl)amino]-4-pyridin-4-ylthiophene-3-carboxylate]
Testing Result % inhibition at indicated concentration, Test 1 (25 uM): 15-43% | Testing Result % inhibition at indicated concentration, Test 2: 14-17%

CCOC(=O)c1c(C)csc1NC(=O)CN1CCCCC1 [w, ethyl 4-methyl-2-[(piperidin-1-ylacetyl)amino]thiophene-3-carboxylate]
Testing Result % inhibition at indicated concentration, Test 1 (25 uM): 58-70% | Testing Result % inhibition at indicated concentration, Test 2: 39-47%

COC(=O)c1c(NC(=O)CN2CCCCC2)sc2c1CCCC2 [x, methyl 2-[(piperidin-1-ylacetyl)amino]-4,5,6,7-tetrahydro-1-benzothiophene-3-carboxylate]
Testing Result % inhibition at indicated concentration, Test 1 (25 uM): 55-70% | Testing Result % inhibition at indicated concentration, Test 2: 41-55%

CCCOC(=O)c1c(NC(=O)CN2CCCCC2)sc2c1CCCC2 [y, propyl 2-[(piperidin-1-ylacetyl)amino]-4,5,6,7-tetrahydro-1-benzothiophene-3-carboxylate]
Testing Result % inhibition at indicated concentration, Test 1 (25 uM): 52-65% | Testing Result % inhibition at indicated concentration, Test 2: 33-54%

CCOC(=O)c1c(-c2ccc(Br)cc2)csc1NC(=O)CN1CCCCC1 [z, ethyl 4-(4-bromophenyl)-2-[(piperidin-1-ylacetyl)amino]thiophene-3-carboxylate]
Testing Result % inhibition at indicated concentration, Test 1 (25 uM): 44-55% | Testing Result % inhibition at indicated concentration, Test 2: 37-43%
